In US11780845B2 (Relay Therapeutics, Inc., priority 2019, dated 2023):

Experiments:
[1] = tested on: SNU-16; assay: Cell SNU-16 assay; assay type: cell-based
[2] = target: FGFR2 (Homo sapiens (Human), UniProt P21802); assay: Biochemical FGFR2 Caliper assay
[3] = Homo sapiens, SNU-16, SNU-16 cells

Sequence of FGFR2 (P21802 22-821): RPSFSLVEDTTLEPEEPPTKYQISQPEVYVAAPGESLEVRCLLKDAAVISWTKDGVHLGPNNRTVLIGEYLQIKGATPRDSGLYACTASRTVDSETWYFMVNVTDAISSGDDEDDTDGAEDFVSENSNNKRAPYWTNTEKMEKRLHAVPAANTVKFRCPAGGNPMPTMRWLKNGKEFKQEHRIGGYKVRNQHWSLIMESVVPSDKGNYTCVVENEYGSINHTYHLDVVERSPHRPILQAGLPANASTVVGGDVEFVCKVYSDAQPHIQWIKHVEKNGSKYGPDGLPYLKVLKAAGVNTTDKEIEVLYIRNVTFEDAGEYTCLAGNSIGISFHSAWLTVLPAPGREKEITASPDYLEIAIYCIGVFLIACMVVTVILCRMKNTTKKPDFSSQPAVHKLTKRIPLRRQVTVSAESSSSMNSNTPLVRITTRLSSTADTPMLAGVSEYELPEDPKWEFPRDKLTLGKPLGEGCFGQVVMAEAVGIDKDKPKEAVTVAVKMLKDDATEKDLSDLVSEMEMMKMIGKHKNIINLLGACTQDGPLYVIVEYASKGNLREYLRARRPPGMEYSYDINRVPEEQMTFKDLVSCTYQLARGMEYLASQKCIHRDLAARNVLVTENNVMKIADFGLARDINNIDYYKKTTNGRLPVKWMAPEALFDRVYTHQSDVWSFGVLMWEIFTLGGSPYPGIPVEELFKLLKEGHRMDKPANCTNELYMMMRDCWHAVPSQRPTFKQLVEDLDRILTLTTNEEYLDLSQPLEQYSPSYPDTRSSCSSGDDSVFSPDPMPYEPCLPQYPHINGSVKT

Row | SMILES | IC50 ([1]; SNU-16 cells) | IC50 [2] | other results
1 | C#Cc1cc(C)c(-c2c(-c3ccc(Oc4nccc(C)n4)c(F)c3)c3c(N)ncnc3n2C)c(F)n1 (atropisomer, axis not shown) [Example 1339] | ≤ 100 nM | – | –
2 | C#Cc1cc(C)c(-c2c(-c3ccc(Oc4nccc(C)n4)c(F)c3)c3c(N)ncnc3n2C)c(F)n1 (atropisomer, axis not shown) [Example 1340] | ≤ 100 nM | – | –
3 | C#Cc1cc(C)c(-c2c(-c3ccc(Oc4nccc(C)n4)c(F)c3)c3c(N)ncnc3n2C)c(C)n1 (atropisomer, axis not shown) [Example 1342] | ≤ 100 nM | – | –
4 | C#Cc1cc(C)c(-c2c(-c3ccc(Oc4nccc(C)n4)c(F)c3)c3c(N)ncnc3n2C)c(C)n1 (atropisomer, axis not shown) [Example 1344] | ≤ 100 nM | – | –
5 | C#Cc1cc(C)c(-c2c(C3=CC[C@H](C(=O)N4CCC[C@H]4C)CC3)c3c(N)ncnc3n2C)c(F)n1 (atropisomer, axis not shown) [Example 1348] | ≤ 100 nM | 100 to 250 nM | –
6 | C#Cc1cc(C)c(-c2c(C3=CC[C@H](C(=O)N4CCC[C@H]4C)CC3)c3c(N)ncnc3n2C)c(F)n1 (atropisomer, axis not shown) [Example 1349] | ≤ 100 nM | – | –
7 | C#Cc1cc(C)c(-c2c(-c3ccc(Oc4nccc(C)n4)c(F)c3)c3c(N)ncnc3n2[C@H]2C[C@H](O)C2)cn1 (atropisomer, axis not shown) [Example 1357] | – | < 100 nM | IC50 [1, 3]: ≤ 100 nM
8 | C#Cc1ncc(-c2c(-c3ccc(Oc4nccc(C)n4)c(F)c3)c3c(N)ncnc3n2C(C)C)c(C)c1F (atropisomer, axis not shown) [Example 1360] | ≤ 100 nM | – | –
9 | C#Cc1ncc(-c2c(-c3ccc(Oc4nccc(C)n4)c(F)c3)c3c(N)ncnc3n2C(C)C)c(C)c1F (atropisomer, axis not shown) [Example 1361] | ≤ 100 nM | – | –
10 | C#Cc1cc(OC)c(-c2c(-c3ccc(Oc4nccc(C)n4)c(F)c3)c3c(C)ncnc3n2C)c(C)n1 (atropisomer, axis not shown) [Example 1446] | ≤ 100 nM | < 100 nM | –
11 | C#Cc1cc(C)c(-c2c(-c3ncc(Oc4nccc(C)n4)cc3F)c3c(N)ncnc3n2C)c(C)n1 (atropisomer, axis not shown) [Example 1453] | – | < 100 nM | IC50 [1, 3]: ≤ 100 nM
12 | C#Cc1cc(OC)c(-c2c(-c3ccc(Oc4nccc(C)n4)c(F)c3)c3c(C)ncnc3n2C)c(C)n1 (atropisomer, axis not shown) [Example 1459] | ≤ 100 nM | < 100 nM | –
13 | C#Cc1cc(OC)c(-c2c(-c3ccc(Oc4nccc(C)n4)c(F)c3)c3c(C)ncnc3n2C)c(C)n1 (atropisomer, axis not shown) [Example 1460] | 250 to 1000 nM | 1000 to 100000 nM | –
14 | C#Cc1cc(C)c(-c2c(C3=CC[C@H](C(=O)N4CCC[C@H]4C#N)CC3)c3c(C)ncnc3n2C)c(C)n1 (atropisomer, axis not shown) [Example 1463] | – | 100 to 250 nM | IC50 [1, 3]: ≤ 100 nM
15 | C#Cc1cc(C)c(-c2c(C3=CC[C@@H](C(=O)N4CCC[C@H]4C#N)CC3)c3c(C)ncnc3n2C)c(C)n1 (atropisomer, axis not shown) [Example 1464] | 250 to 1000 nM | 250 to 1000 nM | –
16 | C#Cc1cc(C)c(-c2c(C3=CC[C@H](C(=O)N4CCC[C@H]4C#N)CC3)c3c(C)ncnc3n2C)c(C)n1 (atropisomer, axis not shown) [Example 1465] | ≤ 100 nM | < 100 nM | –
17 | C#Cc1cc(C)c(-c2c(C3=CC[C@@H](C(=O)N4CCC[C@H]4C#N)CC3)c3c(C)ncnc3n2C)c(C)n1 (atropisomer, axis not shown) [Example 1466] | 100 to 250 nM | 100 to 250 nM | –
18 | C#Cc1cc(C)c(-c2c(C3=CC[C@H](C(=O)N4CCC[C@H]4C#N)CC3)c3c(N)ncnc3n2C)c(C)n1 (atropisomer, axis not shown) [Example 1469] | – | < 100 nM | IC50 [1, 3]: ≤ 100 nM
19 | C#Cc1cc(C)c(-c2c(C3=CC[C@H](C(=O)N4CCC[C@H]4C#N)CC3)c3c(N)ncnc3n2C)c(C)n1 (atropisomer, axis not shown) [Example 1470] | ≤ 100 nM | – | –

Row | SMILES | IC50 ([1]; SNU-16 cells) | IC50 [2] | other results
20 | C#Cc1cc(C)c(-c2c(C3=CC[C@@H](C(=O)N4CCC[C@H]4C#N)CC3)c3c(N)ncnc3n2C)c(C)n1 (atropisomer, axis not shown) [Example 1471] | – | < 100 nM | IC50 [1, 3]: ≤ 100 nM
21 | C#Cc1cc(C)c(-c2c(C3=CC[C@@H](C(=O)N4CCC[C@H]4C#N)CC3)c3c(N)ncnc3n2C)c(C)n1 (atropisomer, axis not shown) [Example 1472] | ≤ 100 nM | – | –
22 | C#Cc1cc(C)c(-c2c(-c3ncc(Oc4nccc(C)n4)cc3F)c3c(N)ncnc3n2C)c(C)n1 (atropisomer, axis not shown) [Example 1493] | ≤ 100 nM | – | –
23 | Cn1c([C@@H]2CCN(C#N)C2)c(-c2ccc(C(=O)N3CCCC3)cc2)c2c(N)ncnc21 (single isomer, unassigned) [Example 860] | – | < 100 nM | IC50 [1, 3]: 250 to 1000 nM
24 | Cn1c([C@H]2CCN(C#N)C2)c(-c2ccc(C(=O)N3CCCC3)cc2)c2c(N)ncnc21 (single isomer, unassigned) [Example 861] | – | 1000 to 100000 nM | IC50 [1, 3]: 1000 to 100000 nM
25 | C=CC(=O)Nc1ccc(-c2c(C3=CC[C@H](C(=O)N4CCCC4)CC3)c3c(N)ncnc3n2C)cc1 (single isomer, unassigned) [Example 1049] | ≤ 100 nM | – | –
26 | C=CC(=O)Nc1ccc(-c2c(C3=CC[C@@H](C(=O)N4CCCC4)CC3)c3c(N)ncnc3n2C)cc1 (single isomer, unassigned) [Example 1051] | ≤ 100 nM | – | –
27 | C=C(C)C(=O)Nc1cc(C)c(-c2c(C3=CC[C@@H](C(=O)N4CCCC4)CC3)c3c(N)ncnc3n2C)c(C)c1 (single isomer, unassigned) [Example 1485] | 1000 to 100000 nM | – | –
28 | C=C(C)C(=O)Nc1cc(C)c(-c2c(C3=CC[C@H](C(=O)N4CCCC4)CC3)c3c(N)ncnc3n2C)c(C)c1 (single isomer, unassigned) [Example 1487] | 1000 to 100000 nM | – | –
29 | C=C(C)C(=O)Nc1ccc(-c2c(-c3ccc(Oc4nccc(C)n4)c(F)c3)c3c(N)ncnc3n2C)cc1 [Example 1028] | – | – | IC50 ([1]; Homo sapiens, SNU-16 cells): ≤ 100 nM
30 | C=CC(=O)Nc1ccc(-c2c(-c3ccc(Oc4nccc(C)n4)c(F)c3)c3c(C)ncnc3n2C)c(C)c1 [Example 1127] | ≤ 100 nM | – | –
31 | C#Cc1ncc(-c2c(C3=CC[C@H](C(=O)N4CCCC4)CC3)c3c(C)ncnc3n2C)c(C)n1 [Example 1179] | ≤ 100 nM | – | –
32 | C#Cc1cc(C)c(-c2c(-c3ccc(Oc4nccc(C)n4)c(F)c3)c3c(C)ncnc3n2C)c(C)n1 [Example 1409] | ≤ 100 nM | – | –
33 | C#Cc1cc(C)c(-c2c(-c3ccc(Oc4nccc(C)n4)c(F)c3)c3c(C)ncnc3n2C)c(C)n1 [Example 1410] | ≤ 100 nM | – | –
34 | C#Cc1cc(C)c(-c2c(-c3ccc(Oc4nccc(C)n4)c(F)c3)c3c(C)ncnc3n2C)c(F)n1 [Example 1414] | ≤ 100 nM | – | –
35 | C#Cc1cc(C)c(-c2c(-c3ccc(Oc4nccc(C)n4)c(F)c3)c3c(C)ncnc3n2C)c(F)n1 [Example 1415] | ≤ 100 nM | – | –
36 | C#Cc1cc(OC)c(-c2c(C3=CC[C@H](C(=O)N4CCC[C@H]4C#N)CC3)c3c(C)ncnc3n2C)c(C)n1 [Example 1474] | ≤ 100 nM | – | –
37 | C#Cc1cc(OC)c(-c2c(-c3ncc(Oc4nccc(C)n4)cc3F)c3c(N)ncnc3n2C)cn1 [Example 1489] | ≤ 100 nM | – | –
38 | C#Cc1cc2c(cn1)-c1c(-c3ccc(Oc4nccc(C)n4)c(F)c3)c3c(N)ncnc3n1CCO2 [Example 1494] | ≤ 100 nM | – | –
